Experimental data: ChEMBL document CHEMBL4402544, “Reasonably activating Nrf2: A long-term, effective and controllable strategy for neurodegenerative diseases” (Eur J Med Chem, 2020)
Where a SMILES comes first, the peptide text is derived from it. [ ]: non-standard residue; d: D form. ξ: configuration not given here. ξCha = NC(CC1CCCCC1)C(=O)O; ξThz = O=C(O)C1CSCN1

Experiments:
[1] = target: T1, Nuclear factor erythroid 2-related factor 2 (Homo sapiens) (UniProt Q16236); experiment: Activation of Nrf2 (unknown origin) assessed as induction of ARE at 60 uM
T1 sequence (whole entry): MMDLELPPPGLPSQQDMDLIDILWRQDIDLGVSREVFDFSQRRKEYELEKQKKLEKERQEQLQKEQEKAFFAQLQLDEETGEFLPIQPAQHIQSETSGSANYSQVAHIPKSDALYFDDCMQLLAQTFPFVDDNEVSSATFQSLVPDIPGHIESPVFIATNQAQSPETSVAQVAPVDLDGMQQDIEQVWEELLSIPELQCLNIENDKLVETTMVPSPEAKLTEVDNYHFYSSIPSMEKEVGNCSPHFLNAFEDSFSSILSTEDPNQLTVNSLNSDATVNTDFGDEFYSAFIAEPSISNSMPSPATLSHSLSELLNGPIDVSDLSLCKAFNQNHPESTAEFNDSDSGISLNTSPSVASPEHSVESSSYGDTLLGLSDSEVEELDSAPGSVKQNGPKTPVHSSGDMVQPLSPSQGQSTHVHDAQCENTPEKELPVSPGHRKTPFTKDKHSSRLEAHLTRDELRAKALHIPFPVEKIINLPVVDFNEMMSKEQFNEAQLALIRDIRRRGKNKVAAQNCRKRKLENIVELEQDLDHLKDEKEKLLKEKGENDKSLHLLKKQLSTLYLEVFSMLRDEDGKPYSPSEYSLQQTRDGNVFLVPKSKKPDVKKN

[2] = Neuroprotection activity in human MC65 cells; assay type: functional, cell-based
[3] = target: Kelch-like ECH-associated protein 1 (Homo sapiens, UniProt Q14145); experiment: Binding affinity to Keap1 (unknown origin)
[4] = target: T1, Nuclear factor erythroid 2-related factor 2 (Homo sapiens); experiment: Activation of Nrf2 in human SK-N-SH cells expressing Nqo1 ARE-Luc reporter plasmid at 10 uM after 18 hrs by luciferase reporter gene assay; assay type: cell-based

Kelch-like ECH-associated protein 1, sequence (Q14145 whole entry): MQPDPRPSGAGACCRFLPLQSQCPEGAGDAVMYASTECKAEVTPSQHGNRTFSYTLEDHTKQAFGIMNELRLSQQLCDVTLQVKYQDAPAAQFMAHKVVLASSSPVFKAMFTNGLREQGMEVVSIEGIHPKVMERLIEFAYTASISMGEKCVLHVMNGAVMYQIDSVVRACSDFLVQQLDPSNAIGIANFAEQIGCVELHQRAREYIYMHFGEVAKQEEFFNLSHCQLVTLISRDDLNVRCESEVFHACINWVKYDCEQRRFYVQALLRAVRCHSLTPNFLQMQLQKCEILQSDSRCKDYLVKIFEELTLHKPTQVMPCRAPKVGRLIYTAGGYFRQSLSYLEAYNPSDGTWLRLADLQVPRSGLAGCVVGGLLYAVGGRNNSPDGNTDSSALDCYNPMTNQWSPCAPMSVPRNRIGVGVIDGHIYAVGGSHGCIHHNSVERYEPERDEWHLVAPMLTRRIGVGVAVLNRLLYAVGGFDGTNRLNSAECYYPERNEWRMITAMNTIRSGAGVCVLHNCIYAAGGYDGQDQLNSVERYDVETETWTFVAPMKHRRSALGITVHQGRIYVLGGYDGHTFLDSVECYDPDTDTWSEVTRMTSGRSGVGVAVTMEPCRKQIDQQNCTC

C/C=C/C(=O)Oc1ccc2[nH]cc(CCNC(C)=O)c2c1
fold change (FC) [1]: 30.7

COc1ccc2[nH]cc(CCNC(=O)CC(=O)CCc3ccc(O)cc3)c2c1
EC50 [2]: 27.6 nM

C[C@@H](O)[C@H](NC(=O)[C@H](CCC(=O)O)NC(=O)C1CSCN1C(=O)[C@@H](N)CC(=O)O)C(=O)NCC(=O)N[C@@H](CCC(=O)O)C(=O)NC(CC1CCCCC1)C(=O)O (some centres undefined) (H-D[ξThz]ETGE[ξCha]-OH)
IC50 [3]: 31 nM

C[C@@H]1C(NC(=O)c2ccccc2O)=CC(=O)[C@@H]2O[C@H]12
fold change (FC) [4]: > 4
